The values below are quoted from earlier work in publication PMC11686138 (Nature Communications, 2024).

The series has as its target CLDN4. The conditions noted are these: reported KD.

With NSSYSGNYYSIL [Cpe30 MT2], the dissociation constant (Kd) was 1.97 nM.
